Results taken from patent US11524937B2, “Indirubin derivatives, and uses thereof” (CITY OF HOPE, priority 2012, dated 2022).

Assays:
[1] = test system: Imatinib-resistant human KCL-22 CML cells expressing the T315I mutant Bcr-Abl; assay: Drug resistance of imatinib-resistant T315I KCL-22 CML cells; format: cell-based
ABL1 = ABL1 (Homo sapiens, UniProt P00519); assay: in vitro kinase assay, recombinant ABL1; format: biochemical; conditions: ABL versus Src, higher concentration for ABL
Method: The in vitro kinase assays of an IRD (IRD Nos. 10, 11, 13, 61, 70, 71, 79, 80, 83˜87 and 176) were carried out using recombinant proteins according to the procedure disclosed in Nam 2012 (Nam, S., Xie, J., Perkins, A., Ma, Y., Yang, F., Wu, J., Wang, Y., Xu, R. Z., Huang, W., Horne, D. A., and Jove, R. (2012) Novel synthetic derivatives of the natural product berbamine inhibit Jak2/Stat3 signaling and induce apoptosis of human melanoma cells, Molecular oncology), which is hereby incorporated by reference in its entirety, as if fully set forth herein.

[2] = test system: p-Stat5 (Y694) in KCL-22 CML cells; assay: Western blot p-Stat5, KCL-22 CML cells; format: cell-based, human; conditions: 4 hours
Method: (§1) Human KCL-22 CML cells were obtained from the American Type Culture Collection (ATCC). Cells were cultured in RPMI-1640 media containing 10% fetal bovine serum (FBS). Imatinib-resistant human KCL-22 CML cells expressing the T315I mutant Bcr-Abl (KCL-22M) were derived from human KCL-22 CML cells (Yuan et al., 2010). Cells were grown in RPMI 1640 media supplemented with 10% FBS. Monoclonal antibodies to Abl protein and phosphotyrosine (p-Y) were obtained from BD Biosciences (San Diego, Calif.). Polyclonal antibodies to p-Stat5 (Y694) and p-Src family (Y419) were obtained from Cell Signaling Technologies (Cambridge, Mass.). Polyclonal antibodies to Stat5 were from Santa Cruz Biotechnology (Santa Cruz, Calif.). Monoclonal antibody to Src was obtained from Millipore (Billerica, Mass.).
(§2) Western analyses were performed as described previously with minor modification (Nam et al., 2005b). Briefly, KCL-22 CML and T315I KCL-22 CML cells were treated with IRDs. Whole-cell lysates were resolved by SDS-PAGE and immunoblotted with specific antibodies. Primary phospho-specific antibodies were incubated in TBS (pH 7.5) with 0.1% Tween-20 and 5% BSA with gentle agitation overnight at 4° C. […] Positive immuno-reactive proteins were detected using the ECL system (Pierce, Rockford, Ill.). […]

[3] = test system: p-Stat5 (Y694) in T315I KCL-22 CML cells; assay: Western blot p-Stat5, T315I KCL-22 CML cells; format: cell-based, human; conditions: 4 hours
Method: as §1, §2

[4] = test system: p-Src in KCL-22 CML cells; assay: Western blot p-Src, KCL-22 CML cells; format: cell-based, human; conditions: 1.0 μM
Method: as §1, §2

[5] = test system: p-Src in T315I KCL-22 CML cells; assay: Western blot p-Src, T315I KCL-22 CML cells; format: cell-based, human; conditions: 1.0 μM
Method: as §1, §2

[6] = test system: p-Bcr-Abl in KCL-22 CML cells; assay: Western blot p-Bcr-Abl, KCL-22 CML cells; format: cell-based, human; conditions: 4 hours
Method: as §1, §2

[7] = test system: p-Bcr-Abl in T315I KCL-22 CML cells; assay: Western blot p-Bcr-Abl, T315I KCL-22 CML cells; format: cell-based, human; conditions: 4 hours
Method: as §1, §2

Chain of ABL1 (P00519 whole entry): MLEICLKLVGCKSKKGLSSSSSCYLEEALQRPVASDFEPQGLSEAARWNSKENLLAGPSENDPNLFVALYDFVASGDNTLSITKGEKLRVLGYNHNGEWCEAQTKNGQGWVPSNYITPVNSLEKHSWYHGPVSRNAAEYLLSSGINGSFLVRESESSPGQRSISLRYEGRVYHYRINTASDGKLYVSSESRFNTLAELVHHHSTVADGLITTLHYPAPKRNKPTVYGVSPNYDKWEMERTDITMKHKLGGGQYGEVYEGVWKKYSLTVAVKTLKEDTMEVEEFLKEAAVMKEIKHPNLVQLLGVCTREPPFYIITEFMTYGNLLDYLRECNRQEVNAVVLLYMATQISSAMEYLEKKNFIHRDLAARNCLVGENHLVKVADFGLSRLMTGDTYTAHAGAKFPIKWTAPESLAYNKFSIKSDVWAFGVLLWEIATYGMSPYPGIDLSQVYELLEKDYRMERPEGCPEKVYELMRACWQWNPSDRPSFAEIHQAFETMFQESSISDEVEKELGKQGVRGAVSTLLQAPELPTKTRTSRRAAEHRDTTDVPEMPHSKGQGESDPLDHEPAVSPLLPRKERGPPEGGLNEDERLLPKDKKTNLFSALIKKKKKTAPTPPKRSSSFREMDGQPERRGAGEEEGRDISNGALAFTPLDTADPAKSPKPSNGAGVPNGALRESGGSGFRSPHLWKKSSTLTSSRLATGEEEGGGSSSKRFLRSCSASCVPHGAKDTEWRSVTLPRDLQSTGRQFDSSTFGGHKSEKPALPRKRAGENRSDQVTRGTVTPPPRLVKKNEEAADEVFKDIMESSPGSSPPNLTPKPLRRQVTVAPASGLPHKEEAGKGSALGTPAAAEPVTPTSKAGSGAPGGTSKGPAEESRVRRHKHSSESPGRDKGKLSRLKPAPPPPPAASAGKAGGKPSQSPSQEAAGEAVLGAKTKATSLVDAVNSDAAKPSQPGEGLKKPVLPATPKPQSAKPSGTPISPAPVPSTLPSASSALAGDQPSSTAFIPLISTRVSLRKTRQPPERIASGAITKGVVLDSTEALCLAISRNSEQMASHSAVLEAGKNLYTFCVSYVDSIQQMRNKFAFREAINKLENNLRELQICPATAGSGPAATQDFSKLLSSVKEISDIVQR

Cc1cn(-c2cc(NC(=O)c3ccc(C)c(Nc4nccc(-c5cccnc5)n4)c3)cc(C(F)(F)F)c2)cn1 [nilotinib]
resistance of the cells to the drug [1]: resist

Cl.Cl.O=C1Nc2cc(Br)ccc2C1=C1Nc2ccccc2C1=NOCCN1CCNCC1 [compound 87]
concentration inhibiting ABL kinase activity relative to Src kinase activity in vitro (ABL1): about 15 fold
tyrosyl phosphorylation of Stat5 ([2]; 5 μM): substantially inhibited
total Stat5 levels [2]: unchanged
tyrosyl phosphorylation of Stat5 ([3]; 5 μM): substantially inhibited
total Stat5 levels [3]: unchanged
autophosphorylation of Src [4]: strong reduction
autophosphorylation of Src [5]: strong reduction
concentration that reduced levels of p-Bcr-Abl [6]: higher than 0.5 μM
concentration that reduced levels of p-Bcr-Abl [7]: higher than 0.5 μM
